System: protein kinase C
Experiment: not given
Details: cited from earlier work

Which “concentration inhibiting protein kinase C” value does the source give for `CN1CC[C@H](c2c(O)cc(O)c3c(=O)cc(-c4ccccc4Cl)oc23)[C@H](O)C1` [Flavopiridol] here?
Its value is ≥ 10 μM/L.

System: HCT-116 and NCI H460 cell lines
Experiment: Cell Cycle Analysis Using Flow Cytometry
Type: cell-based
Details: compound at 1×IC50 and 3×IC50, 24 hours, DNA histogram analysis
Protocol: Cell Cycle Analysis Using Flow Cytometry
The HCT-116 and NCI H460 cell lines were seeded in 75 cm^2 flasks at 5×10^5 cells/25 ml RPMI 1640 medium containing 10% dialyzed fetal bovine serum. They were incubated for 24 hours. Compound is then added at 1×IC50 and 3×IC50 (determined from above section “growth inhibition studies”) and incubated for an additional 24 hours. The cells were subsequently harvested and the protocol (Robinson, J. P. and Darzynkiewicz, Z. Current Protocols in Cytometry. 1997) for staining was followed. DNA histogram analysis was performed using ModFit LT (Verity House).

With `O=C1NC(=O)c2c1c1c3ccccc3[nH]c1c1c2c2cccc3c2n1CCC3` [Example 52, 11H, 12H, 14H-pyrrolo[3,4-c]quinolino[8′,8a′,1′:3,2,1]-pyrrolo[2,3-a]carbazole-5,7-dione] as the compound, how does the cell cycle arrest read?
The cell cycle arrest was “arrest cells in the G1 phase of the cell cycle”.

Biological target: T1, cyclin D1-cdk4 (Homo sapiens, UniProt P11802)
Experiment: Assay of Cyclin D1-cdk4 Kinase Activity with the Rb21 Protein as Substrate
Type: biochemical
Details: Rb21 protein 5 ug as substrate, 30 uM ATP, 60 minutes at room temperature
Protocol: Assay of Cyclin D1-cdk4 Kinase Activity with the Rb21 Protein as Substrate
The cyclin D1-cdk4 kinase activity of a compound was assayed by preparing a 100 ul reaction at the following concentrations: 20 mM Hepes pH 7.0, 10 mM MgCl2, 30 uM ATP, 5 ug of Rb21 protein (Santa Cruz Biotech, Catalog #sc-4112), 1.0 uCi of γ-^33P-ATP, 1.09 ug of cyclin D-cdk4 enzyme, 4% DMSO, and various concentrations of inhibitor. The reaction was incubated at room temperature (about 74° F.) for 60 minutes, and then terminated by the addition of 100 ul of 25% trichloroacetic acid. Next, the reaction was filtered through a Millipore Multiscreen-FC Plate—Catalog number MAFC NOB 10, and the plate was washed 2 times with 320 ul each of 10% trichloroacetic acid, followed by the addition of 100 ul of scintillation fluid and quantitation on a Packard Instruments, Top Count, scintillation counter.

T1 sequence (P11802 whole entry): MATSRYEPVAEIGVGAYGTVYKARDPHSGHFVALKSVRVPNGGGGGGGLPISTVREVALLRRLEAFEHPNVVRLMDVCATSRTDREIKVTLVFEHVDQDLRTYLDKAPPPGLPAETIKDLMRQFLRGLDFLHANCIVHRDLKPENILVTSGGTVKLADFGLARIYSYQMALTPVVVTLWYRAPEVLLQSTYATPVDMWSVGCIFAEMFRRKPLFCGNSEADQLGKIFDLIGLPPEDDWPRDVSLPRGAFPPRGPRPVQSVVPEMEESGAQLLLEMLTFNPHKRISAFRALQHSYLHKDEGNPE
T1 sequence (P24385 whole entry partner): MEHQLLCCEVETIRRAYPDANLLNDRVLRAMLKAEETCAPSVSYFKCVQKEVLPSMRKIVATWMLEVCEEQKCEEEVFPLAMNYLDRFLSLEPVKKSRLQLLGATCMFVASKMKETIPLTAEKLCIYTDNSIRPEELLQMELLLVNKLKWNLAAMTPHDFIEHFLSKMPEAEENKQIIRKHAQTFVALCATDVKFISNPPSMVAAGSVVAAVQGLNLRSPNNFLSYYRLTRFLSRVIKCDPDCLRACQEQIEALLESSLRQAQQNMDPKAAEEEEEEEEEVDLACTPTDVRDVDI

Which IC50 does the source give for `CC1(C)CCn2c3c1cc(F)cc3c1c3c(c4c5ccccc5[nH]c4c12)C(=O)NC3=O` [drawing 234] here?
The IC50 was 202 nM.

Which IC50 does the source give for `CN1Cc2cccc3c4c5c(c6c7ccccc7[nH]c6c4n(c23)C1)C(=O)NC5=O` [drawing 237] here?
The IC50 was 15.5 nM.

With `CC(C)(C)OC[C@H]1Cn2c3c(cccc3c3c4c(c5c6ccccc6[nH]c5c32)C(=O)NC4=O)CN1` [drawing 229] as the compound, how does the IC50 read?
Its IC50 is 66.6 nM.

Which IC50 does the source give for `O=C1NC(=O)C(c2cn3c4c(cccc24)CCC3)=C1c1c[nH]c2ccccc12` [drawing 238] here?
The IC50 was 709 nM.

With `O=C1NC(=O)c2c1c1c3ccccc3[nH]c1c1c2c2cccc3c2n1CCC3` [drawing 228] as the compound, how does the IC50 read?
Its IC50 is 65 nM.

Which IC50 does the source give for `O=C1NC(=O)c2c1c1c3ccc(CN4CCCC4)cc3[nH]c1c1c2c2cccc3c2n1CCC3` [drawing 236] here?
Its IC50 is 11.1 nM.

With `CC1Cn2c3c(cccc3c3c4c(c5c6ccccc6[nH]c5c32)C(=O)NC4=O)CN1C(=O)[C@H](C)N` (stereo partly drawn) [drawing 233] as the compound, how does the IC50 read?
Its IC50 is 180 nM.

For `CC1(C)Cc2cccc3c4c5c(c6c7ccc(CN)cc7[nH]c6c4n(c23)C1)C(=O)NC5=O` [drawing 235], which IC50 is on record?
Its IC50 is 30.1 nM.

With `O=C1NC(=O)C(c2cn3c4c(cccc24)CC(CO)C3)=C1c1c[nH]c2ccccc12` (stereo not drawn) [drawing 239] as the compound, how does the IC50 read?
The IC50 was 811 nM.

System: HCT-116 or NCI H460 cells
Experiment: Cell Growth Inhibition Assay (MTT)
Type: cell-based
Details: 72 h of drug exposure
Protocol: Cell Growth Inhibition Assay
The MTT assay was used to measure growth inhibitory activity (Schultz, R. M., et. al. Oncology Res. 5, 223-228, 1993). […] Basically, 1000 HCT-116 or NCI H460 cells were added per well to 96-well flat-bottom plates in 100-ul RPMI 1640 medium containing 10% dialyzed fetal bovine serum. The plates were incubated for 24 h prior to addition of test compounds. A stock solution (10 mM) was prepared in DMSO and serially diluted in medium. Compound dilutions were added to triplicate wells, and the plates were incubated for 72 hours. […].

For `O=C1NC(=O)c2c1c1c3ccccc3[nH]c1c1c2c2cccc3c2n1CCC3` [Example 52, 11H, 12H, 14H-pyrrolo[3,4-c]quinolino[8′,8a′,1′:3,2,1]-pyrrolo[2,3-a]carbazole-5,7-dione], which cell growth inhibition is on record?
Its cell growth inhibition is “inhibit cell growth”.

System: Ser-780 pRb phosphorylation in HCT116 cells
Experiment: Inhibition of Rb Phosphorylation Assay
Type: cell-based, Human
Details: compound at 1×, 2× and 3×IC50, 24 hours, immunoblot
Protocol: Inhibition of Rb Phosphorylation Assay
Human HCT116 colon carcinoma cell line was purchased from American Tissue Culture Collection (Rockville, Md.) and maintained as monolayer in RPMI-1640 with L-Glutamine and 25 mM HEPES supplemented with 10% fetal bovine serum in a 37° C. incubator with a 10% CO2 atmosphere. The detection of mycoplasm in cultured cells was performed using Mycoplasma Rapid Detection System (TaKaRa Shuzo Co. Ltd., Shiga, Japan) every 2-3 months and the cells were found consistently negative throughout these experiments. The Rb phosphorylation assay was done be plating 4×10^5 cells/well in 6-well plates. […] At the end of the incubation period the mediumj was removed and the cells were washed twice with cold PBS containing 1 mM sodium orthovanadate (Na3VO4). […] Protein concentration was determined by the Bio-Rad DC protein assay (Bio-Rad, Hercules, Calif.). […] Proteins were detected by capturing image of the membrane using Quantity One Software on a Fluor-S multi-Imager (Bio-Rad, Hercules, Calif.) in a linear range. Specific bands were quantified using Quantity One Software. […] Results are expressed as a percentage inhibition of Ser-780 pRb phosphorylation in drug treated cells versus control DMSO treated cells.

Which “inhibition of Ser-780 pRb phosphorylation” value does the source give for `O=C1NC(=O)c2c1c1c3ccccc3[nH]c1c1c2c2cccc3c2n1CCC3` [Example 52, 11H, 12H, 14H-pyrrolo[3,4-c]quinolino[8′,8a′,1′:3,2,1]-pyrrolo[2,3-a]carbazole-5,7-dione] here?
The value was “inhibit Rb (retinoblastoma protein) phosphorylation”.

Biological target: T1, cyclin D1-cdk4
Experiment: Assay of Cyclin D1-cdk4 Kinase Activity with the ING Peptide as Substrate
Type: biochemical
Details: ING peptide 200 uM as substrate, 300 uM ATP, 60 minutes at room temperature
Protocol: Assay of Cyclin D1-cdk4 Kinase Activity with the ING Peptide as Substrate
The cyclin D1-cdk4 kinase activity of a compound was assayed by preparing a 100 ul reaction at the following concentrations: 35 mM Hepes pH 7.0, 10 mM MgCl2, 300 uM ATP, 200 uM ING peptide, 1.0 uCi of γ-^33P-ATP, 4.34 ug of cyclin D-cdk4 enzyme, 4% DMSO, and various concentrations of inhibitor. The reaction was incubated at room temperature (about 74° F.) for 60 minutes, and then terminated by the addition of 100 ul of 10% phosphoric acid. Next, the reaction was filtered through a Millipore Multiscreen-PH Plate—Catalog number MAPH NOB 10, and the plate was washed 2 times with 320 ul each of 0.5% phosphoric acid, followed by the addition of 100 ul of scintillation fluid and quantitation on a Packard Instruments, Top Count, scintillation counter.

With `O=C1NC(=O)c2c1c1c3ccc(CN4CCCC4)cc3[nH]c1c1c2c2cccc3c2n1CCC3` [drawing 220] as the compound, how does the IC50 read?
The IC50 was 51.3 nM.

For `CN1Cc2cccc3c(C4=C(c5c[nH]c6ccccc56)C(=O)NC4=O)cn(c23)C1`, which IC50 is on record?
The IC50 was 455 nM.

Which IC50 does the source give for `CC1(C)CCn2cc(C3=C(c4c[nH]c5ccccc45)C(=O)NC3=O)c3cc(F)cc1c32` here?
Its IC50 is 1560 nM.

With `O=C1NC(=O)c2c1c1c3ccccc3[nH]c1c1c2c2cccc3c2n1CC(CO)C3` (stereo not drawn) as the compound, how does the IC50 read?
Its IC50 is 127 nM.

Which IC50 does the source give for `O=C1NC(=O)C(c2cn3c4c(cccc24)CCC3CO)=C1c1c[nH]c2ccccc12` (stereo not drawn) here?
Its IC50 is 151 nM.

Which IC50 does the source give for `CC1Cn2c3c(cccc3c3c4c(c5c6ccccc6[nH]c5c32)C(=O)NC4=O)CN1C(=O)[C@H](C)N` (stereo partly drawn) [drawing 217] here?
Its IC50 is 269 nM.

Which IC50 does the source give for `CC1(C)Cc2cccc3c4c5c(c6c7ccc(CN)cc7[nH]c6c4n(c23)C1)C(=O)NC5=O` [drawing 219] here?
The IC50 was 173 nM.

With `CC(C)(C)OC[C@H]1Cn2c3c(cccc3c3c4c(c5c6ccccc6[nH]c5c32)C(=O)NC4=O)CN1` [drawing 213] as the compound, how does the IC50 read?
Its IC50 is 116 nM.

For `O=C1NC(=O)c2c1c1c3ccccc3[nH]c1c1c2c2cccc3c2n1CCC3CO` (stereo not drawn), which IC50 is on record?
Its IC50 is 64.5 nM.

With `O=C1NC(=O)c2c1c1c3ccccc3[nH]c1c1c2c2cccc3c2n1CCC3` [drawing 212] as the compound, how does the IC50 read?
The IC50 was 105 nM.

With `CC1(C)Cc2cccc3c(C4=C(c5c[nH]c6cc(CN)ccc56)C(=O)NC4=O)cn(c23)C1` as the compound, how does the IC50 read?
The IC50 was 793 nM.

Which IC50 does the source give for `O=C1NC(=O)C(c2cn3c4c(cccc24)CC(CO)C3)=C1c1c[nH]c2ccccc12` (stereo not drawn) [drawing 223] here?
Its IC50 is 367 nM.

With `O=C1NC(=O)C(c2cn3c4c(cccc24)CCC3)=C1c1c[nH]c2ccccc12` [drawing 222] as the compound, how does the IC50 read?
The IC50 was 786 nM.

For `O=C1NC(=O)c2c1c1c3ccccc3[nH]c1c1c2c2cccc3c2n1C(CO)CC3` (stereo not drawn), which IC50 is on record?
The IC50 was 78.7 nM.

Which IC50 does the source give for `CN1Cc2cccc3c4c5c(c6c7ccccc7[nH]c6c4n(c23)C1)C(=O)NC5=O` [drawing 221] here?
The IC50 was 36.8 nM.

For `CC1(C)CCn2c3c1cc(F)cc3c1c3c(c4c5ccccc5[nH]c4c12)C(=O)NC3=O` [drawing 218], which IC50 is on record?
Its IC50 is 466 nM.

System: protein kinase A
Experiment: not given
Details: cited from earlier work

Which “concentration inhibiting protein kinase A” value does the source give for `CN1CC[C@H](c2c(O)cc(O)c3c(=O)cc(-c4ccccc4Cl)oc23)[C@H](O)C1` [Flavopiridol] here?
Its value is ≥ 10 μM/L.

Source: US6867198B2, “Agents and methods for the treatment of proliferative diseases” (Eli Lilly and Company, priority 1999, dated 2005)
